{"source": "patent US4950658A", "about": "“Method of medical treatment of Alzheimer's disease” (priority 1988, dated 1990)", "key": {"[1]": {"system": "brain cholinesterase", "details": "cited from earlier work"}, "[2]": {"system": "acetylcholine", "details": "cortex, striatum, hippocampus and midbrain; cited from earlier work"}, "[3]": {"system": "cholinesterase", "details": "when normal acetylcholine levels are regained (within 24 hours) after acute administration; cited from earlier work"}, "[4]": {"system": "acetylcholine", "details": "acute administration, all brain regions; cited from earlier work"}, "[5]": {"details": "with loss of enzymatic inhibitory activity; cited from earlier work"}, "[6]": {"system": "plasma cholinesterase", "assay": "Plasma cholinesterase inhibition by naled, DDVP and metrifonate", "format": "biochemical", "description": "Unlike metrifonate, which acts as a slow release formulation, naled degrades rapidly in vivo to the metabolite DDVP. […] The slightly lower values in inhibition observed for naled than that of DDVP can be attributed to its higher molecular weight. […] All the cholinesterase inhibition activity of naled is a result of the formation of DDVP."}, "[7]": {"system": "brain cholinesterase", "assay": "Cholinesterase activity in rat after intramuscular inhibitor", "format": "in vivo", "details": "for activity of cholinesterase: 80 mg/Kg intramuscular"}, "[8]": {"system": "acetylcholine", "assay": "Acetylcholine levels in rat brain after one or two consecutive administrations", "format": "in vivo", "description": "The second administration of the drugs was timed so as to allow acetylcholine levels to return to approximately (+12%) control levels and the concentration of the drug was the highest that would allow 100% survival."}, "[9]": {"system": "cholinesterase", "assay": "Cholinesterase activity in rat brain regions after intracerebroventricular metrifonate", "format": "in vivo", "details": "2.5 mg intracerebroventricularly, injected side, 30 min", "protocol": "(§1) Levels of acetylcholine increased by 45% at 45 min. then returned to normal by 120 min. When metrifonate (2.5 mg) was given intracerebroventricularly the activity of cholinesterase decreased in the injected side at 30 min. to 20% in hippocampus, 22% in the medulla, 50% in the cerebellum, 58% in the striatum and 72% in the cortex."}, "[10]": {"system": "acetylcholine", "assay": "Acetylcholine levels in rat brain regions after intracerebroventricular metrifonate", "format": "in vivo", "details": "2.5 mg intracerebroventricularly", "protocol": "as §1"}, "[11]": {"system": "Alzheimer's disease patients", "assay": "Open metrifonate study in Alzheimer's disease patients, ADAS", "format": "in vivo", "protocol": "We have administered metrifonate to 15 Alzheimer's disease patients. Patients were diagnosed using Diagnostic Statistical Manual IIIR criteria. […] Patients with moderately severe Alzheimer's disease were accepted to explore for effects of severity on drug response.\n(§2) Patients were tested using the Alzheimer's Disease Assessment Scale (ADAS) (Rosen et al 1984), Mini Mental State Examination (Folstein et al 1975), a Clincial Global Assessment Scale (Guy 1973) and a rating scale for side effects. A laboratory battery to assess hematopoietic, hepatic, urinary and cardiac status, physical examination, vital signs and measurement of blood cholinesterase activities were completed. Patients were then given in a single oral dose under open conditions metrifonate 2.5 mg/Kg and 5 mg/Kg on successive weeks and reassessed 1, 4 and 7 days after the 2.5 mg/Kg dose and 4 and 7 days after the 5 mg/Kg dose. Patients were next administered metrifonate one month later after a second baseline assessment (blood cholinesterase have returned to initial values by 1 month) and were given on four successive weeks 7.5 mg/Kg, 7.5 mg/Kg, 15 mg/Kg and 15 mg/Kg and assessed 7 days after each dosing prior to administration of the next dose. At each assessment all the cognitive and medical studies at baseline were repeated.\nTo identify responders we used the criterion of an improvement of 4 points on the ADAS. Among 5 patients who have received all four dosage levels we have identified 5 as responders, among 10 patients who have received both the 2.5 and 5 mg/Kg doses we have identified 5 responders for a total of 10 responders identified. […] The longest term patients (n=5) were on metrifonate for a total of four months.\nIn the completed patients the preferred dose, defined as maximum improvement without interfering side effects, was identified. Best doses ranged from 2.5 to 7.5 mg/Kg. Lower doses of about 0.5 mg/Kg were also operable."}, "[12]": {"system": "cholinesterase and acetylcholinesterase in blood", "assay": "Blood cholinesterase activities in Alzheimer's disease patients on metrifonate", "format": "in vivo", "details": "15 patients, 4-16 weeks of once weekly drug", "protocol": "as §2\n(§3) In sum we have successfully administered metrifonate to 15 patients (4-16 weeks of once weekly drug) without the appearance of side effects except for nausea and vomiting in four patients that has not reoccurred following administration of the highest dose as a divided dose over two days. […]"}, "[13]": {"assay": "Side effects in Alzheimer's disease patients on metrifonate", "format": "in vivo", "protocol": "as §2, §3"}, "[14]": {"system": "plasma acetycholinesterase", "details": "in vivo; cited from earlier work"}, "[15]": {"system": "brain acetylcholinesterase", "details": "125 mg/kg intraperitoneal, within 15 minutes; cited from earlier work"}, "[16]": {"system": "acetylcholine", "details": "125 mg/kg intraperitoneal, simultaneous with inhibition; cited from earlier work"}, "[17]": {"system": "acetylcholinesterase", "details": "cited from earlier work"}, "[18]": {"details": "in vivo; cited from earlier work"}, "[19]": {"assay": "Side effects of cholinesterase inhibitors in rats", "design": "animals with facial clonus / animals with sedation: dose or concentration left out as unconfirmed"}, "[20]": {"system": "3H-choline accumulation and K+ evoked acetylcholine release", "assay": "3H-choline accumulation and K+ evoked acetylcholine release in vitro", "details": "concentration giving 100% inhibition of cholinesterase in vitro; after each of two doses"}, "[21]": {"system": "Alzheimer patients", "details": "i.v. administration; cited from earlier work"}, "[22]": {"details": "physostigmine i.m., tetrahydroaminoacridine 15 mg/Kg"}, "[23]": {"details": "tetrahydroaminoacridine 15 mg/Kg"}}}
{"smiles": "COP(=O)(OC)OC=C(Cl)Cl", "note": "[DDVP, 2,2 dichlorovinyl dimethyl phosphate]", "values": [{"measurement": "time to become active as inhibitor of brain cholinesterase", "setting": "[1]; in vivo", "result": "one"}, {"measurement": "inhibition of brain cholinesterase", "setting": "[1]; maximal (up to)", "result": "up to 96%"}, {"measurement": "time to peak accumulation of acetylcholine", "setting": "[2]", "result": "≤ 5", "unit": "min"}, {"measurement": "cholinesterase still inhibited", "setting": "[3]", "result": 35, "unit": "%"}, {"measurement": "time to regain normal acetylcholine levels", "setting": "[4]", "result": "≤ 24", "unit": "h"}, {"measurement": "inactivation by oxidative metabolism", "setting": "[5]", "result": "rapidly inactivated"}]}
{"smiles": "COP(=O)(OC)C(O)C(Cl)(Cl)Cl", "note": "(stereo not drawn) [metrifonate]", "values": [{"measurement": "increase necessary to obtain the same amount of plasma cholinesterase inhibition", "setting": "[6]; relative to naled/DDVP", "result": 10, "unit": "fold"}, {"measurement": "activity of cholinesterase", "setting": "[7]; 30 min", "result": 26, "unit": "%"}, {"measurement": "activity of cholinesterase", "setting": "[7]; 180 min", "result": 50, "unit": "%"}, {"measurement": "activity of cholinesterase", "setting": "[7]; 360 min", "result": 74, "unit": "%"}, {"measurement": "peak cholinesterase inhibition", "setting": "[7]; at the doses used", "result": 85, "unit": "%"}, {"measurement": "time of peak cholinesterase inhibition", "setting": "[7]; at the doses used", "result": 30, "unit": "min"}, {"measurement": "time of return of acetylcholine to normal", "setting": "[8]; 80 mg/Kg intramuscular", "result": "≤ 120", "unit": "min"}, {"measurement": "increase in levels of acetylcholine", "setting": "[8]; 80 mg/Kg intramuscular, 45 min", "result": 45, "unit": "%"}, {"measurement": "time at which acetylcholine returned practically to control levels", "setting": "[8]; first administration", "result": 90, "unit": "min"}, {"measurement": "time at which the peak value of acetylcholine was reached", "setting": "[8]; first administration", "result": 45, "unit": "min"}, {"measurement": "increase in acetylcholine levels after the first administration", "setting": "[8]; rat brain, first of two consecutive administrations", "result": 45, "unit": "%"}, {"measurement": "duration of the acetylcholine increase after the second administration", "setting": "[8]; second consecutive administration", "result": 120, "unit": "min"}, {"measurement": "increase in acetylcholine after the second administration", "setting": "[8]; second consecutive administration, highest dose allowing 100% survival", "result": 33, "unit": "%"}, {"measurement": "activity of cholinesterase, cerebellum", "setting": "[9]", "result": 50, "unit": "%"}, {"measurement": "activity of cholinesterase, cortex", "setting": "[9]", "result": 72, "unit": "%"}, {"measurement": "activity of cholinesterase, hippocampus", "setting": "[9]", "result": 20, "unit": "%"}, {"measurement": "activity of cholinesterase, medulla", "setting": "[9]", "result": 22, "unit": "%"}, {"measurement": "activity of cholinesterase, striatum", "setting": "[9]", "result": 58, "unit": "%"}, {"measurement": "maximal level of acetylcholine, hippocampus and cortex", "setting": "[10]; 45 min", "result": "160 % of baseline"}, {"measurement": "peak level of acetylcholine, striatum", "setting": "[10]; 60 min", "result": "155 % of baseline"}, {"measurement": "effect of the highest dose on cognitive performance", "setting": "[11]; 15 mg/KG", "result": "deterioration in cognitive performance"}, {"measurement": "clinical effect of once weekly dosing", "setting": "[11]; 0.5 to 15 mg/Kg body weight/week, significant number of Alzheimer's disease patients", "result": "improvement in memory, cognition and other behaviors"}, {"measurement": "total of responders identified", "setting": "[11]; 15 patients", "result": 10}, {"measurement": "effect of lower doses", "setting": "[11]; about 0.5 mg/Kg", "result": "operable"}, {"measurement": "change on the ADAS in responders", "setting": "[11]; all responders", "result": "≥ 9"}, {"measurement": "responders (improvement of 4 points on the ADAS)", "setting": "[11]; among 5 patients who received all four dosage levels", "result": 5}, {"measurement": "responders (improvement of 4 points on the ADAS)", "setting": "[11]; among 10 patients who received both the 2.5 and 5 mg/Kg doses", "result": 5}, {"measurement": "inhibition of cholinesterase and acetylcholinesterase in blood", "setting": "[12]", "result": "up to 80%"}, {"measurement": "patients with nausea and vomiting", "setting": "[13]; 15 patients, 4-16 weeks of once weekly drug", "result": "four"}, {"measurement": "adverse, side or toxic effects", "setting": "[13]; up to 15 mg/Kg body weight/week, except occasional nausea and vomiting", "result": "have not occurred"}, {"measurement": "half life of cholinesterase inhibition", "setting": "[14]", "result": "5 to 6", "unit": "days"}, {"measurement": "inhibition of brain acetylcholinesterase", "setting": "[15]", "result": 70, "unit": "%"}, {"measurement": "change in acetylcholine", "setting": "[16]", "result": "increase"}, {"measurement": "activity of the precursor itself against acetylcholinesterase", "setting": "[17]", "result": "not active"}, {"measurement": "absorption in humans", "setting": "[18]", "result": "rapidly absorbed"}, {"measurement": "tolerance in humans", "setting": "[18]", "result": "relatively few side effects"}, {"measurement": "seizures", "setting": "[19]; metrifonate 80 mg/Kg 1M", "result": "did not occur"}, {"measurement": "survival", "setting": "[19]; metrifonate 80 mg/Kg 1M", "result": "all animals survived"}, {"measurement": "time at which symptoms developed after the injection", "setting": "[19]; metrifonate 80 mg/Kg 1M", "result": "20 to 35", "unit": "min"}, {"measurement": "side effects compared with the other two drugs", "setting": "[19]; metrifonate 80 mg/Kg 1M vs physostigmine and tetrahydroaminoacridine", "result": "less frequent and less severe"}]}
{"smiles": "COP(=O)(OC)OC(Br)C(Cl)(Cl)Br", "note": "(stereo not drawn) [naled, 1,2-dibromo-2,2-dichlorvoethyl dimethyl phosphate]", "values": [{"measurement": "plasma cholinesterase inhibition compared with DDVP", "setting": "[6]", "result": "parallel to that by DDVP"}, {"measurement": "inherent cholinesterase inhibition activity", "setting": "[6]; conclusion from comparison with DDVP", "result": "without inherent cholinesterase inhibition activity of its own"}]}
{"smiles": "CNC(=O)Oc1ccc2c(c1)[C@]1(C)CCN(C)[C@@H]1N2C", "note": "[physostigmine]", "values": [{"measurement": "3H acetylcholine release", "setting": "[20]", "result": "significantly more"}, {"measurement": "studies that have shown improvement in memory", "setting": "[21]", "result": "6 out of 9"}, {"measurement": "animals with splay of hind limbs", "setting": "[19]; physostigmine 300 mg/Kg i.m.", "result": 25, "unit": "%"}, {"measurement": "animals with facial clonus", "setting": "[19]; physostigmine i.m.", "result": 15, "unit": "%"}, {"measurement": "animals with sedation", "setting": "[19]; physostigmine i.m.", "result": 10, "unit": "%"}, {"measurement": "animals with fasciculations", "setting": "[19]; [22]", "result": 60, "unit": "%"}, {"measurement": "animals with tremor", "setting": "[19]; [22]", "result": 30, "unit": "%"}]}
{"smiles": "Nc1c2c(nc3ccccc13)CCCC2", "note": "[tetrahydroaminoacridine]", "values": [{"measurement": "animals with fasciculations", "setting": "[19]; [22]", "result": 25, "unit": "%"}, {"measurement": "animals with tremor", "setting": "[19]; [22]", "result": 25, "unit": "%"}, {"measurement": "animals with facial and forelimb clonus", "setting": "[19]; [23]", "result": 10, "unit": "%"}, {"measurement": "animals with generalized seizures", "setting": "[19]; [23]", "result": 4, "unit": "%"}, {"measurement": "animals with increased salivation", "setting": "[19]; [23]", "result": 60, "unit": "%"}, {"measurement": "animals with lacrimation", "setting": "[19]; [23]", "result": 40, "unit": "%"}, {"measurement": "animals with pronounced splay", "setting": "[19]; [23]", "result": 35, "unit": "%"}, {"measurement": "interval between generalized seizures", "setting": "[19]; [23]", "result": "5 to 10", "unit": "min"}]}
